Laboratory results published in ChEMBL document CHEMBL1201862, “PubChem BioAssay data set” (2004).
The source made the active and inactive calls. Unless noted, no cut-off for these calls is given here.

How the values were obtained:
INS1 = test: suppression of cytokine-induced beta-cell apoptosis – INS-1E, caspase luminescence, dry powder, beta-cell apoptosis inhibitor project, dose response (AID 488848); assay type: functional, cell-based; conditions: Rattus norvegicus
Hexokinase HKDC1 = target: T1, Hexokinase HKDC1 (Homo sapiens, UniProt Q2TB90); test: SAR analysis of small molecule inhibitors of hexokinase domain containing I (HKDC1). [Related pubchem assays (depositor defined):AID493160, AID493190]; assay type: functional
T1 sequence (Q2TB90 whole entry): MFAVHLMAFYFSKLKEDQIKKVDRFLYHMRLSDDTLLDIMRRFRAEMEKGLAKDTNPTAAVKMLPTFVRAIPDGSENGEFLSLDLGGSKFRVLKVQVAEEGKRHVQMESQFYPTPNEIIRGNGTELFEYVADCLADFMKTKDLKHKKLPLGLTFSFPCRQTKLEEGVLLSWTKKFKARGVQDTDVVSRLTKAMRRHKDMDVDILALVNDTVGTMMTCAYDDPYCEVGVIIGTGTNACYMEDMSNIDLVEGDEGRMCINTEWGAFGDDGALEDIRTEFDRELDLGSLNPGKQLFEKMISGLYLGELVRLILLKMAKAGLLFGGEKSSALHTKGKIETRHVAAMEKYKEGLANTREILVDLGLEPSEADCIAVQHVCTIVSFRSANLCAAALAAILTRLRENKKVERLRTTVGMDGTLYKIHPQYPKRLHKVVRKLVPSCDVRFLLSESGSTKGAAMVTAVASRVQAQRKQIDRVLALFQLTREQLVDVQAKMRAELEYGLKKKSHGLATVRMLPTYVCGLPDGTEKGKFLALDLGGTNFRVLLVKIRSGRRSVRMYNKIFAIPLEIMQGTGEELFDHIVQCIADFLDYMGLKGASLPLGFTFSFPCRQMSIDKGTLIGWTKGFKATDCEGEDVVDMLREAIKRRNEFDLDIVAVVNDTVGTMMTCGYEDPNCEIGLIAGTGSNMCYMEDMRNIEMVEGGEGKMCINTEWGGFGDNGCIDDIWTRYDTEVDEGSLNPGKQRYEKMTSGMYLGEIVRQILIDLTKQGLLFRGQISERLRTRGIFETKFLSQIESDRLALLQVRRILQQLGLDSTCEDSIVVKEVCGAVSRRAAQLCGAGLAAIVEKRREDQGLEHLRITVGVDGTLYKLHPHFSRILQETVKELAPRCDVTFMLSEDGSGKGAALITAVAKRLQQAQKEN

[1] = viability of BHK-21 cells – cell-based, secondary screen, cytotoxicity control for flavivirus guanylyltransferase probe project (AID 624078); assay type: functional
Hexokinase-1 = target: T2, Hexokinase-1 (Homo sapiens, UniProt P19367); test: SAR analysis of small molecule inhibitors of hexokinase domain containing I (HKDC1) in the hexokinase 1 selectivity assay. [Related pubchem assays (depositor defined):AID493160, AID493190]; assay type: functional
T2 sequence (P19367 whole entry): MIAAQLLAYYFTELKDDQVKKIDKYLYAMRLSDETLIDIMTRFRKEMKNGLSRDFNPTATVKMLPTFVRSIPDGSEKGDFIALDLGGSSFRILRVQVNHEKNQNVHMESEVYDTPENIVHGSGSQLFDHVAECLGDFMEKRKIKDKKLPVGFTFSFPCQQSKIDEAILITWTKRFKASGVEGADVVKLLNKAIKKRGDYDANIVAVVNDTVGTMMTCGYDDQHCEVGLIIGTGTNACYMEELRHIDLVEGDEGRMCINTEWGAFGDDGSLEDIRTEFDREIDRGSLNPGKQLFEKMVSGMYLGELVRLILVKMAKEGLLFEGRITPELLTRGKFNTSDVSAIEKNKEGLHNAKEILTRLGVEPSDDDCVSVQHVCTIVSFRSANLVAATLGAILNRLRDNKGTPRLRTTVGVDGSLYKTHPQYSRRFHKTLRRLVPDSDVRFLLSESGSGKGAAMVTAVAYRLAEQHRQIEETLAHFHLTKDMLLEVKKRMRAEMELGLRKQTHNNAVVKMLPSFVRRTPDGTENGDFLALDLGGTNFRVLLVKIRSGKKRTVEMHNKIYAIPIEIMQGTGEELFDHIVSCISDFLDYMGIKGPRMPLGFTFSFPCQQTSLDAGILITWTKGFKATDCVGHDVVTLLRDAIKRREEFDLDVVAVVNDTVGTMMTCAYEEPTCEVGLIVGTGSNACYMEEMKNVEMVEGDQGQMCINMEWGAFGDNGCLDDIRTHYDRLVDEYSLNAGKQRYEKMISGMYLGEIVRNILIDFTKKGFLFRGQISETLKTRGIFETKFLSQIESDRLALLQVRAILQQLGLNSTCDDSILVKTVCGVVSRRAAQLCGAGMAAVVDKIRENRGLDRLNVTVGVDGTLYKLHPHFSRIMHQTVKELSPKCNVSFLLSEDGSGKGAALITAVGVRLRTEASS

Phospholipase D2 [2] = target: T3, Phospholipase D2 (Homo sapiens, UniProt O14939); test: cellular phospholipase D2 inhibition IC50 – cell-based, dose response (AID 602147); assay type: functional;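 note: cellular assay in HEK293 cells overexpressing GFP-tagged PLD2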
Phospholipase D2 [3] = target: T3, Phospholipase D2; test: PLD2 purified enzyme concentration response. [Related pubchem assays (depositor defined):AID588854]; assay type: functional
Phospholipase D1 = target: T4, Phospholipase D1 (Homo sapiens, UniProt Q13393); test: PLD1 purified enzyme concentration response. [Related pubchem assays (depositor defined):AID588854]; assay type: functional
T4 sequence (Q13393 whole entry): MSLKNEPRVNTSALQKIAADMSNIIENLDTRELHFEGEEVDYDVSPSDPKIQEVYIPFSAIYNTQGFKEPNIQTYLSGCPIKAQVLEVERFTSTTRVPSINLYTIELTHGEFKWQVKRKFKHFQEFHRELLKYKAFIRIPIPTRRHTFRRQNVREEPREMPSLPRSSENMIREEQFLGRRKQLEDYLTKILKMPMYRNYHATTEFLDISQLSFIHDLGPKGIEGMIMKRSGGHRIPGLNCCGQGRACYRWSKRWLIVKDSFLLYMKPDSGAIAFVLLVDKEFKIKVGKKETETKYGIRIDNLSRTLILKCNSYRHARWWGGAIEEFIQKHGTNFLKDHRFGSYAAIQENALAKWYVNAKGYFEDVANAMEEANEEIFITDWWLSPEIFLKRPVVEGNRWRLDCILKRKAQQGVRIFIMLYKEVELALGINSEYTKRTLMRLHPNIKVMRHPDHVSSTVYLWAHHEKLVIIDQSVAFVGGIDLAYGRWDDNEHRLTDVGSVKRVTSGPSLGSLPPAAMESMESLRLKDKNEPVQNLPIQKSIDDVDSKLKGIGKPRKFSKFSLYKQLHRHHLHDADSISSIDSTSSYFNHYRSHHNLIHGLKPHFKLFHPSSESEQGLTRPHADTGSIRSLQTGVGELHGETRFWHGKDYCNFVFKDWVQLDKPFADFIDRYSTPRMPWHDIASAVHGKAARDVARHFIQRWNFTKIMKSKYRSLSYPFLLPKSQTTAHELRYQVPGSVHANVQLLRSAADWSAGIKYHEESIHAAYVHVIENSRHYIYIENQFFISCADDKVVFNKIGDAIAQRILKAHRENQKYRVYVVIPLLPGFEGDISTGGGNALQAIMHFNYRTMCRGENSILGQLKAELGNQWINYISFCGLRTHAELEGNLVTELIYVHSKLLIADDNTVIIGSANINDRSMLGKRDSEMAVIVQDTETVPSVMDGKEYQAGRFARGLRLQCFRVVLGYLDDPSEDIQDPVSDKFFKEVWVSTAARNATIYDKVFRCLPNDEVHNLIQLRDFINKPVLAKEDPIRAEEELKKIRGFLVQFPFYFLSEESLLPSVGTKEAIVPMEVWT

NIH3T3 = test: mammalian cell viability counter-check – Alamar Blue, fluconazole, dry powder, cytotoxicity control for antifungal drug resistance project, dose response (AID 488809); assay type: functional, cell-based; conditions: Mus musculus
[4] = THP-1 cell cytotoxicity, cytotoxicity control, set 6 (AID 602433); assay type: functional; conditions: Mycobacterium tuberculosis

T3 sequence (O14939 whole entry): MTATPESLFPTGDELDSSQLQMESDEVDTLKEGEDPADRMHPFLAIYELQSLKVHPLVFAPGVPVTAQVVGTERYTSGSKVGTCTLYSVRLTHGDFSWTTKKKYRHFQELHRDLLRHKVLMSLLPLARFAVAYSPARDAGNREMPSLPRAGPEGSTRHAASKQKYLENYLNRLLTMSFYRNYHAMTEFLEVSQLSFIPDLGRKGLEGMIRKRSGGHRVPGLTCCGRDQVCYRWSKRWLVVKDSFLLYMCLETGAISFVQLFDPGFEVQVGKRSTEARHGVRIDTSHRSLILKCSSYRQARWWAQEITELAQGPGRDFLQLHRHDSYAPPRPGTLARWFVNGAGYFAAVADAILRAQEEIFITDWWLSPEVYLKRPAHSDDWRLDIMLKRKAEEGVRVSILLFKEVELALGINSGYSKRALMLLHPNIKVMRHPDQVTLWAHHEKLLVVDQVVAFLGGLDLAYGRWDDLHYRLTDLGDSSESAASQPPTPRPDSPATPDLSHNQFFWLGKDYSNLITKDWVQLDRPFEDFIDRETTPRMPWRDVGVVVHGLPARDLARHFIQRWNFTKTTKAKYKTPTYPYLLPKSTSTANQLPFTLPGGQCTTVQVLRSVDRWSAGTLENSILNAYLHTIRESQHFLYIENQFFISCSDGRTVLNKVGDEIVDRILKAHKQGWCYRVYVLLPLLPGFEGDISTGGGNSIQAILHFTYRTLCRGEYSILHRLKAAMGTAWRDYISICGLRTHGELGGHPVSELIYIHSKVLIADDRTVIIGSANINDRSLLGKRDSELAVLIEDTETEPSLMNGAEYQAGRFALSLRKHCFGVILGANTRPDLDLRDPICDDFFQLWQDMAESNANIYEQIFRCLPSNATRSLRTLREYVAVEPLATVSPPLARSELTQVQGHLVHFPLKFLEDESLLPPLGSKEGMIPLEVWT

For COc1ccc(S(=O)(=O)N(C)C[C@@H]2Oc3c(NC(=O)Nc4cccc(-c5ncccn5)c4)cccc3C(=O)N([C@@H](C)CO)C[C@H]2C)cc1, the AC50 (INS1) was 98 µM (active).
With O=C(O)CSc1cc(NS(=O)(=O)c2ccc(F)cc2)c2ccccc2c1O the IC50 (Hexokinase HKDC1) was 5.02 µM (active), the CC50 [1] was 6.86 µM (active) and the IC50 (Hexokinase-1) was 40.3 µM (inactive).
For O=C(NCCN1CCC2(CC1)C(=O)NCN2c1ccc(F)c(F)c1)c1cnc2ccccc2c1, the IC50 (Phospholipase D2 [2]) was 0.069 µM (active), the IC50 (Phospholipase D2 [3]) was 0.2 µM (active) and the IC50 (Phospholipase D1) was 5.48 µM (active).
For O=S(=O)(c1ccc(Cl)cc1)N1CCN(c2ccnc3cc(Cl)ccc23)CC1, the AC50 (NIH3T3) was 27.7 µM (active).
In the case of CC(C)CCNC(=O)CSc1nc2c(c(=O)[nH]1)CCCC2, the CC50 [4] is reported as > 100 µM (inconclusive).
